Results as given in patent US20100184853A1, “TERPENES WITH ANTIFUNGAL ACTIVITY AGAINST MALASSEZIA YEASTS” (INSTITUTO BIOMAR, S.A., priority 2007, published 2010).

Test system: Malassezia furfur CBS 1878
Assay: Antifungal disk diffusion susceptibility test
Format: cell-based
Conditions: 15 nmol per 6 mm paper disc; ML2 plates; two days at 30° C.
Procedure: Antifungal activity was tested against Malassezia furfur CBS 1878.
Malassezia furfur was grown on ML2 agar plates containing potato dextrose agar 4.2%, ox bile 0.8%, glycerol 1% (v:v), olive oil 1% (v:v), tween 60 0.5% (v:v) for two days, at 30° C., as stock culture.
An area of 2 cm^2 of a growing plate of Malassezia furfur stock culture was scraped using a sterile loop. Biomass was homogenated in 1 ml glycerol 20%. A volume of 100 μl of the glycerol homogenate was spread on testing ML2 plates.
Each test compound was dissolved in distilled water and added on blank paper discs (6 mm, diameter) on the inoculated plates. Plates were incubated for two days at 30° C. Inhibition circles around the discs (halo) were used as activity measure.
Ketoconazol was used as inhibition control.
The test was carried out at 15 nmol for each compound. Antifungal activities are shown at table 1.

| Structure (SMILES) | Halo (inhibition circle around the disc) |
| --- | --- |
| COC1C(=O)CCC(O)(CCl)C1(O)C1(C)OC1CC=C(C)C (stereo not shown) [Chlovalicin] | 35 mm |
| CO[C@@H]1[C@H](OC(=O)/C=C/C=C/C=C/C=C/C(=O)O)CC[C@]2(CO2)[C@H]1[C@@]1(C)O[C@@H]1CC=C(C)C [Fumagillin] | 27 mm |
| CC(=O)N1CCN(c2ccc(OCC3COC(Cn4ccnc4)(c4ccc(Cl)cc4Cl)O3)cc2)CC1 (stereo not shown) [Ketoconazol] | 23 mm |
| CO[C@@H]1C(=O)CC[C@]2(CO2)[C@@]1(O)[C@@]1(C)O[C@@H]1CC=C(C)C [Ovalicin] | 46 mm |
